Data reported in patent publication US20120149080A1, “YEAST PRODUCTION CULTURE FOR THE PRODUCTION OF BUTANOL” (Butamax(TM) Advanced Biofuels LLC, priority 2010, published 2012).

Legend:
[1] = test system: Saccharomyces cerevisiae BY4743; experiment: 24 hour survival (CFU) at low and high cell density; type: cell-based
Procedure: Saccharomyces cerevisiae BY4743 (ATCC 201390) was plated from a freezer vial onto YPD agar (Teknova, Hollister, Calif.; Cat. #Y1000) and incubated overnight at 30° C. Cells from the YPD plate were inoculated into a 25 ml pre-culture of YPD broth (Teknova; Cat. #Y5000) with an initial OD600 of 0.06 to 0.08. The pre-culture was grown for 7 hours in an aerobic shaker at 30° C. An aliquot of the pre-culture was inoculated into 200 ml of YPD broth, with an initial OD600 of 0.06 to 0.08, and this culture was incubated with aeration at 30° C. for approximately 17 hours. The optical density of the culture was measured, the culture was centrifuged and the cells were resuspended to yield an OD600 of 5 in fresh YPD broth. This is referred to as a high cell density (HCD) culture. […] This is referred to as a low the cell density (LCD) culture. These cultures were incubated at 30° C. with shaking for 30 minutes for an acclimation period. At the end of the 30 minute acclimation period, the OD600 was measured. 5 ml of low or high cell density culture was dispensed to 15 ml conical tubes which contained different concentrations of the alcohol to be tested. A control tube included no alcohol. The tubes were placed in a rotary drum at 30° C. and incubated for 24 hours. The time of addition of cells was referred to as “time 0”. […] Colony forming units (CFUs) were determined on YPD plates at time 0 for the control and at 24 hours for each of the cultures, including the control culture, using standard microbiological methods. […] Colonies were counted after 48 hours, and CFUs/ml were calculated. At time 0, the low cell density cultures had about 4.8×10^5 CFUs/ml, and the high cell density cultures had about 5.4×10^7 CFUs/ml.

S. cerevisiae PNY0569 = experiment: Glucose utilization rate under non-growing conditions in buffer; type: cell-based, Saccharomyces cerevisiae; conditions: PNY0569, 20 g/L isobutanol
Procedure: (§1) Isobutanol production may or may not be coupled to growth. Therefore we measured the glucose consumption rates under non-growing conditions using three different pH buffers.
(§2) Glucose consumption rates were determined in phosphate buffer pH 6.5 as outlined by Diderich, J. A., et al., Microbiology, 1999, 145 p. 3447-54. We also determined the glucose consumption rates at pH 5.25 and pH 4.0 using MES buffer.
(§3) Cells were grown overnight at 30° C. in YPD (125 ml in a 500 ml flask). Cells were centrifuged and resuspended in buffer (0.1M phosphate buffer pH 6.0 or 0.1M MES buffer pH 5.25 or 0.1M MES buffer pH 4.0), washed one time, and then resuspended such that each cell suspension had approximately 16 OD or 160 million cell/ml. 10 ml of these stock cells were transferred to flasks containing 10 ml of the corresponding buffer containing 40 g/L glucose and varying concentrations of isobutanol. At various times samples (500 to 700 ul) were transferred to a tube containing an equal volume of 10% TCA. Samples were centrifuged and glucose determined in the YSI glucose analyzer. Glucose consumption rates were determined by plotting the amount of glucose consumed over time.

S. cerevisiae PNY0614 = experiment: as above; type: cell-based, Saccharomyces cerevisiae; conditions: PNY0614, 20 g/L isobutanol
Procedure: as §1, §2, §3

S. cerevisiae PNY0602 = experiment: as above; type: cell-based, Saccharomyces cerevisiae; conditions: PNY0602, 20 g/L isobutanol
Procedure: as §1, §2, §3

[2] = test system: Saccharomyces cerevisiae BY4743; experiment: Growth (OD600) of yeast in varying isobutanol concentrations; type: cell-based
Procedure: Saccharomyces cerevisiae BY4743 was plated from a freezer vial onto YPD agar (Teknova, Hollister, Calif.; Cat. #Y1000) and incubated overnight at 30° C. Cells from the YPD plate were inoculated into a 25 ml pre-culture of YPD broth (Teknova, Hollister, Calif.; Cat. #Y5000) with an initial OD600 of 0.06 to 0.08. The pre-culture was grown for 7 hours in an aerobic shaker at 30° C. An aliquot of the pre-culture was inoculated into 125 ml of YPD broth, with an initial OD600 of 0.06 to 0.08, and this culture was incubated with aeration at 30° C. for approximately 17 hours.
A starter culture of 150 ml of YPD was inoculated with 5 ml of the overnight culture with an initial OD600 of 0.15. This culture was incubated at 30° C. with aeration for two hours, reaching OD600 of 0.38. At this time (time=0) the cultures were challenged with varying concentrations of isobutanol as given in Table 4 and the OD600 was assayed every hour for 5 h and at 24 h.

Q: Which results are given for `CC(C)CO` [Isobutanol, isobutanol]?
A: Percent Survival HCD (%) ([1]; 1.0% (w/v) alcohol, high cell density OD600 5): 77.8%; Percent Survival LCD (%) ([1]; 1.0% (w/v) alcohol, low cell density OD600 0.05): 0.6%; Percent Survival HCD (%) ([1]; 1.5% (w/v) alcohol, high cell density): 45.1%; Percent Survival LCD (%) ([1]; 1.5% (w/v) alcohol, low cell density): 0.1%; Percent Survival HCD (%) ([1]; 2.5% (w/v) alcohol, high cell density): <0.001%; Percent Survival LCD (%) ([1]; 2.5% (w/v) alcohol, low cell density): <0.001%; Glucose Utilization (g/gdcw/h) (S. cerevisiae PNY0569; pH 4, non-growing): 0.7 g/gdcw/h; Glucose Utilization (g/gdcw/h) (S. cerevisiae PNY0569; pH 5.25, non-growing): 0.8 g/gdcw/h; Glucose Utilization (g/gdcw/h) (S. cerevisiae PNY0569; pH 6.5, non-growing): 0.6 g/gdcw/h; Glucose Utilization (g/gdcw/h) (S. cerevisiae PNY0614; pH 4, non-growing): 0.9 g/gdcw/h; Glucose Utilization (g/gdcw/h) (S. cerevisiae PNY0614; pH 5.25, non-growing): 1.1 g/gdcw/h; Glucose Utilization (g/gdcw/h) (S. cerevisiae PNY0614; pH 6.5, non-growing): 0.7 g/gdcw/h; Glucose Utilization (g/gdcw/h) (S. cerevisiae PNY0602; pH 4, non-growing): 0.9 g/gdcw/h; Glucose Utilization (g/gdcw/h) (S. cerevisiae PNY0602; pH 5.25, non-growing): 1.1 g/gdcw/h; Glucose Utilization (g/gdcw/h) (S. cerevisiae PNY0602; pH 6.5, non-growing): 0.7 g/gdcw/h; Growth (OD 600) ([2]; 0.5% isobutanol, 1 hour): 0.55 OD 600; Growth (OD 600) ([2]; 0.5% isobutanol, 2 hours): 0.74 OD 600; Growth (OD 600) ([2]; 0.5% isobutanol, 3 hours): 1.12 OD 600; Growth (OD 600) ([2]; 0.5% isobutanol, 4 hours): 1.69 OD 600; Growth (OD 600) ([2]; 0.5% isobutanol, 5 hours): 2.22 OD 600; Growth (OD 600) ([2]; 0.5% isobutanol, 24 hours): 5.19 OD 600; Growth (OD 600) ([2]; 0.5% isobutanol, time 0 hours): 0.38 OD 600; Growth (OD 600) ([2]; 0.75% isobutanol, 1 hour): 0.54 OD 600; Growth (OD 600) ([2]; 0.75% isobutanol, 2 hours): 0.68 OD 600; Growth (OD 600) ([2]; 0.75% isobutanol, 3 hours): 1.00 OD 600; Growth (OD 600) ([2]; 0.75% isobutanol, 4 hours): 1.36 OD 600; Growth (OD 600) ([2]; 0.75% isobutanol, 5 hours): 1.80 OD 600; Growth (OD 600) ([2]; 0.75% isobutanol, 24 hours): 4.97 OD 600; Growth (OD 600) ([2]; 0.75% isobutanol, time 0 hours): 0.38 OD 600; Growth (OD 600) ([2]; 1% isobutanol, 1 hour): 0.51 OD 600; Growth (OD 600) ([2]; 1% isobutanol, 2 hours): 0.62 OD 600; Growth (OD 600) ([2]; 1% isobutanol, 3 hours): 0.82 OD 600; Growth (OD 600) ([2]; 1% isobutanol, 4 hours): 0.96 OD 600; Growth (OD 600) ([2]; 1% isobutanol, 5 hours): 1.16 OD 600; Growth (OD 600) ([2]; 1% isobutanol, 24 hours): 4.41 OD 600; cell concentration reached ([2]; 1% isobutanol, after overnight growth, one OD600 = 10^7 cells/ml): about 4×10^7 cells/ml; Growth (OD 600) ([2]; 1% isobutanol, time 0 hours): 0.38 OD 600; Growth (OD 600) ([2]; 1.5% isobutanol, 1 hour): 0.46 OD 600; Growth (OD 600) ([2]; 1.5% isobutanol, 2 hours): 0.50 OD 600; Growth (OD 600) ([2]; 1.5% isobutanol, 3 hours): 0.53 OD 600; Growth (OD 600) ([2]; 1.5% isobutanol, 4 hours): 0.61 OD 600; Growth (OD 600) ([2]; 1.5% isobutanol, 5 hours): 0.65 OD 600; Growth (OD 600) ([2]; 1.5% isobutanol, 24 hours): 1.41 OD 600; Growth (OD 600) ([2]; 1.5% isobutanol, time 0 hours): 0.38 OD 600; Growth (OD 600) ([2]; 2% isobutanol, 1 hour): 0.43 OD 600; Growth (OD 600) ([2]; 2% isobutanol, 2 hours): 0.46 OD 600; Growth (OD 600) ([2]; 2% isobutanol, 3 hours): 0.47 OD 600; Growth (OD 600) ([2]; 2% isobutanol, 4 hours): 0.49 OD 600; Growth (OD 600) ([2]; 2% isobutanol, 5 hours): 0.50 OD 600; Growth (OD 600) ([2]; 2% isobutanol, 24 hours): 0.90 OD 600; Growth (OD 600) ([2]; 2% isobutanol, time 0 hours): 0.38 OD 600; Growth (OD 600) ([2]; 2.5% isobutanol, 1 hour): 0.42 OD 600; Growth (OD 600) ([2]; 2.5% isobutanol, 2 hours): 0.42 OD 600; Growth (OD 600) ([2]; 2.5% isobutanol, 3 hours): 0.42 OD 600; Growth (OD 600) ([2]; 2.5% isobutanol, 4 hours): 0.45 OD 600; Growth (OD 600) ([2]; 2.5% isobutanol, 5 hours): 0.45 OD 600; Growth (OD 600) ([2]; 2.5% isobutanol, 24 hours): 0.52 OD 600; Growth (OD 600) ([2]; 2.5% isobutanol, time 0 hours): 0.38 OD 600
